For eleven compounds, IC50 and viability results are on record in ChEMBL document CHEMBL3853288, “Biginkgosides A-I, Unexpected Minor Dimeric Flavonol Diglycosidic Truxinate and Truxillate Esters from Ginkgo biloba Leaves and Their Antineuroinflammatory and Neuroprotective Activities” (J Nat Prod, 2016).

Where only a bound is given, the exact number is not on record here.

The nature of data set [1]: Antineuroinflammatory activity in mouse BV2 cells assessed as inhibition of LPS-induced NO production incubated for 4 hrs followed by LPS stimulation for 24 hrs by Griess assay. The format is functional, cell-based. The settings on record: BV-2. In general terms: Griess reagent forms a coloured azo dye with nitrite.
A short description of data set [2]: Cytotoxicity against LPS-stimulated mouse BV2 cells assessed as cell viability at 20 uM incubated for 4 hrs followed by LPS stimulation for 24 hrs by MTT assay. The settings on record: read-out: Activity. The format is toxicity, BV-2.
Data set [3] deals with SH-SY5Y. Description: Neuroprotection against amyloid beta (25 to 35)-induced cell toxicity in human SH-SY5Y cells assessed as cell viability at 1 uM incubated for 2 hrs followed by amyloid beta (25 to 35) treatment for 24 hrs by MTT assay (reference value: 62.4 +/- 3.5%). Conditions: read-out: Activity. The format is functional. (Formazan colour is commonly taken as a measure of viable cells.)

Data set [4] relates to SH-SY5Y. Description: Neuroprotection against amyloid beta (25 to 35)-induced cell toxicity in human SH-SY5Y cells assessed as cell viability at 10 uM incubated for 2 hrs followed by amyloid beta (25 to 35) treatment for 24 hrs by MTT assay (reference value: 62.4 +/- 3.5%). Type of data set: functional. Conditions: read-out: Activity.

By IC50 is commonly meant the concentration that gives 50% inhibition. Turning to `C[C@@H]1O[C@@H](Oc2c(-c3ccc(O)c(O)c3)oc3cc(O)cc(O)c3c2=O)[C@H](O[C@@H]2O[C@H](COC(=O)[C@H]3[C@H](C(=O)OC[C@H]4O[C@@H](O[C@H]5[C@H](Oc6c(-c7ccc(O)c(O)c7)oc7cc(O)cc(O)c7c6=O)O[C@@H](C)[C@H](O)[C@H]5O)[C@H](O)[C@@H](O)[C@@H]4O)[C@@H](c4ccc(O)cc4)[C@@H]3c3ccc(O)cc3)[C@@H](O)[C@H](O)[C@H]2O)[C@H](O)[C@H]1O`, the IC50 in data set [1] was determined as 2.91 µM. In data set [2], the viability at 24 h, 20 µM was determined as 99%.

Consider `C[C@@H]1O[C@@H](Oc2c(-c3ccc(O)c(O)c3)oc3cc(O)cc(O)c3c2=O)[C@H](O[C@@H]2O[C@H](COC(=O)[C@@H]3[C@H](C(=O)OC[C@H]4O[C@@H](O[C@H]5[C@H](Oc6c(-c7ccc(O)c(O)c7)oc7cc(O)cc(O)c7c6=O)O[C@@H](C)[C@H](O)[C@H]5O)[C@H](O)[C@@H](O)[C@@H]4O)[C@@H](c4ccc(O)cc4)[C@H]3c3ccc(O)cc3)[C@@H](O)[C@H](O)[C@H]2O)[C@H](O)[C@H]1O`, for which the IC50 in data set [1] was more than 100 µM. Take `C[C@@H]1O[C@@H](Oc2c(-c3ccc(O)cc3)oc3cc(O)cc(O)c3c2=O)[C@H](O[C@@H]2O[C@H](COC(=O)[C@H]3[C@H](c4ccc(O)cc4)[C@@H](C(=O)OC[C@H]4O[C@@H](O[C@H]5[C@H](Oc6c(-c7ccc(O)cc7)oc7cc(O)cc(O)c7c6=O)O[C@@H](C)[C@H](O)[C@H]5O)[C@H](O)[C@@H](O)[C@@H]4O)[C@@H]3c3ccc(O)cc3)[C@@H](O)[C@H](O)[C@H]2O)[C@H](O)[C@H]1O`: the IC50 in data set [1] was determined as 17.2 µM. For the same compound, the viability at 24 h, 20 µM in data set [2] was 97.7%.

Regarding `C[C@@H]1O[C@@H](Oc2c(-c3ccc(O)cc3)oc3cc(O)cc(O)c3c2=O)[C@H](O[C@@H]2O[C@H](COC(=O)[C@H]3[C@H](C(=O)OC[C@H]4O[C@@H](O[C@H]5[C@H](Oc6c(-c7ccc(O)c(O)c7)oc7cc(O)cc(O)c7c6=O)O[C@@H](C)[C@H](O)[C@H]5O)[C@H](O)[C@@H](O)[C@@H]4O)[C@@H](c4ccc(O)cc4)[C@@H]3c3ccc(O)cc3)[C@@H](O)[C@H](O)[C@H]2O)[C@H](O)[C@H]1O`, in data set [1], the IC50 was more than 100 µM. For the same compound, the viability at 1 µM in data set [3] was determined as 96.7%. With `C[C@@H]1O[C@@H](Oc2c(-c3ccc(O)cc3)oc3cc(O)cc(O)c3c2=O)[C@H](O[C@@H]2O[C@H](COC(=O)[C@@H]3[C@H](C(=O)OC[C@H]4O[C@@H](O[C@H]5[C@H](Oc6c(-c7ccc(O)cc7)oc7cc(O)cc(O)c7c6=O)O[C@@H](C)[C@H](O)[C@H]5O)[C@H](O)[C@@H](O)[C@@H]4O)[C@@H](c4ccc(O)cc4)[C@H]3c3ccc(O)cc3)[C@@H](O)[C@H](O)[C@H]2O)[C@H](O)[C@H]1O`, the IC50 in data set [1] was more than 100 µM. Take `C[C@@H]1O[C@@H](Oc2c(-c3ccc(O)cc3)oc3cc(O)cc(O)c3c2=O)[C@H](O[C@@H]2O[C@H](COC(=O)[C@H]3[C@H](C(=O)OC[C@H]4O[C@@H](O[C@H]5[C@H](Oc6c(-c7ccc(O)cc7)oc7cc(O)cc(O)c7c6=O)O[C@@H](C)[C@H](O)[C@H]5O)[C@H](O)[C@@H](O)[C@@H]4O)[C@@H](c4ccc(O)cc4)[C@@H]3c3ccc(O)cc3)[C@@H](O)[C@H](O)[C@H]2O)[C@H](O)[C@H]1O`: the IC50 in data set [1] is more than 100 µM.

Turning to `C[C@@H]1O[C@@H](Oc2c(-c3ccc(O)c(O)c3)oc3cc(O)cc(O)c3c2=O)[C@H](O[C@@H]2O[C@H](COC(=O)[C@H]3[C@H](c4ccc(O)cc4)[C@@H](C(=O)OC[C@H]4O[C@@H](O[C@H]5[C@H](Oc6c(-c7ccc(O)c(O)c7)oc7cc(O)cc(O)c7c6=O)O[C@@H](C)[C@H](O)[C@H]5O)[C@H](O)[C@@H](O)[C@@H]4O)[C@@H]3c3ccc(O)cc3)[C@@H](O)[C@H](O)[C@H]2O)[C@H](O)[C@H]1O`, the IC50 in data set [1] is more than 100 µM. The same measure, in the same setting: for `C[C@@H]1O[C@@H](Oc2c(-c3ccc(O)cc3)oc3cc(O)cc(O)c3c2=O)[C@H](O[C@@H]2O[C@H](COC(=O)[C@@H]3[C@H](C(=O)OC[C@H]4O[C@@H](O[C@H]5[C@H](Oc6c(-c7ccc(O)cc7)oc7cc(O)cc(O)c7c6=O)O[C@@H](C)[C@H](O)[C@H]5O)[C@H](O)[C@@H](O)[C@@H]4O)[C@@H](c4ccc(O)cc4)[C@@H]3c3ccc(O)cc3)[C@@H](O)[C@H](O)[C@H]2O)[C@H](O)[C@H]1O` the value was more than 100 µM; for `C[C@@H]1O[C@@H](Oc2c(-c3ccc(O)cc3)oc3cc(O)cc(O)c3c2=O)[C@H](O[C@@H]2O[C@H](COC(=O)[C@@H]3[C@@H](C(=O)OC[C@H]4O[C@@H](O[C@H]5[C@H](Oc6c(-c7ccc(O)cc7)oc7cc(O)cc(O)c7c6=O)O[C@@H](C)[C@H](O)[C@H]5O)[C@H](O)[C@@H](O)[C@@H]4O)[C@@H](c4ccc(O)cc4)[C@@H]3c3ccc(O)cc3)[C@@H](O)[C@H](O)[C@H]2O)[C@H](O)[C@H]1O`, more than 100 µM. Turning to `O=C(O[C@@H]1Cc2c(O)cc(O)cc2O[C@@H]1c1cc(O)c(O)c(O)c1)c1cc(O)c(O)c(O)c1` [EPIGALOCATECHIN GALLATE], the viability at 10 µM in data set [4] was 99%. With `CNC(=N)NCCC[C@H](N)C(=O)O` [TILARGININE], the viability at 24 h, 20 µM in data set [2] stood at 98.5%.
